Source: a melting point compilation (Tetko et al.; mined from patent text by program, amines drawn as free bases though some values may be those of a salt)

| melting point [°C] | Compound |
| --- | --- |
| 118 to 120 | COc1ccc2c(c1)C(=O)N(CCN(C)CCN1C(=O)c3cc(OC)c(OC)cc3C(C)(C)C1=O)C(=O)C2(C)C |
| 239 to 240 | O=C1Nc2ccc(Cl)c(Cl)c2C1=O |
| 170 to 171 | NC1CCc2cc(Cl)ccc2NC1=O (stereo not drawn) |
| 258 to 260 | CCCN1C(=O)CC(C)(C)c2cc(C)c(-c3cc(C=C4SC(=O)NC4=O)ccc3N(C)C)cc21 |
| 158 to 159 | CC(C)c1nc(C(C)C)c(CCc2ccccc2)c(-c2ccc(F)cc2)c1CO |
| 100 to 102 | COc1cc(NCCCCCCN2CCN(CCCO)CC2)c2nccc(C)c2c1 |
| 126 to 128 | Cn1ccc(-n2ccnc2S)n1 |
| 99 to 100 | C=CCC(CC)(CC=C)C(=O)O[C@H]1C[C@H](O)C=C2C=C[C@H](C)[C@H](CC[C@@H]3C[C@@H](O)CC(=O)O3)[C@H]21 |
| > 300 | CC(C)/C=c1\[nH]c(=O)/c(=C/c2c[nH]c3ccccc23)[nH]c1=O |
| 152 to 154 | COc1c(C)cnc(CSc2nc3cc(OC(F)(F)F)ccc3[nH]2)c1C |
| 68 | Cc1nc(-c2ccccc2)c(C)c(=O)o1 |
| 97 to 99 | CCN(CC)Cc1ccnc(F)c1C=NO |
| 279 to 280 | CC(C)(C)c1cc(C(=O)Nc2cccc(C(=O)O)c2)cc(C(C)(C)C)c1O |
| 201 to 203 | COC(=O)NCCC1CN=C(c2cc3cccc(N(C)S(=O)(=O)c4cccs4)c3[nH]2)S1 (stereo not drawn) |
| 95 to 99 | C=C(F)C(=O)Oc1c(Cl)cc(C#N)cc1Cl |
| 56 to 58 | CC(C(=O)OCC(c1cccc(C(F)(F)F)c1)N1CCNCC1)c1ccc2c(c1)CC(C(C)C)C2 (stereo not drawn) |
| 115 to 117 | CON=C(C(C)=C(ON)c1ccccc1C(=NOC)C(=O)OC)c1ccc(Cl)cc1 |
| 98 to 100 | Cc1cccc(C(=O)N[C@@H](CC(C)C)C(=O)N[C@@H](C(C)C)[C@@H](O)c2c(-c3ccccc3)c2=O)n1 |
| 142 | CCCC(=O)c1ccnc(Cl)c1NC(=O)c1ccccc1F |
| 237 to 238 | CC(C)n1nc(-c2sc(N)nc2-c2cccc(F)c2)ccc1=O |
| 164 to 165 | O=S1NC(Cc2ccc3c(Cl)cccc3c2)=NO1 (stereo not drawn) |
| 152 to 153 | O=Cc1ccnc2ccc(Cl)cc12 |
| 98 | NC(=O)c1ccc(OC(F)(F)F)c(Cl)c1 |

| melting point [°C] | Compound |
| --- | --- |
| 136 to 138 | CN1C(=O)CCC(C)(C)c2cc(Nc3ncc(Cl)c(Nc4ccccc4-n4cccn4)n3)ccc21 |
| 185 to 186 | O=C(c1c[nH]c2cc(OCc3ccc(F)cc3)ccc12)C1CSC(c2cccnc2)N1 (stereo not drawn) |
| 120 to 121 | Clc1ccc(Cn2cc(CCN=c3sc4ccccc4s3)c3ccccc32)cc1 |
| 97.6 to 98.4 | CS(=O)(=O)CC(=O)CCc1ccccc1 |
| 298 to 300 | O=C1NCCc2c1c1cccc3c1n2CCO3 |
| 120 to 124 | Cc1cc(F)ccc1-c1nc(NCCO)nc2c1CCC(=O)N2c1ccccc1F |
| 115 to 117 | O=C(NNc1ccc([N+](=O)[O-])cc1)C(F)(F)F |
| 52 | CN(C)CCCn1c(-c2ccccc2)cc2ccccc21 |
| 64 to 65 | CN(C)c1ccc(-c2cc(N(C(=O)OC(C)(C)C)C(=O)OC(C)(C)C)nn2C(=O)OC(C)(C)C)cc1 |
| 176 to 177 | O=C(N[C@H](Cc1ccc(CC(F)(F)C(F)(F)F)cc1)[C@@H](O)c1cccc(Cl)c1)c1cccc2c1C=CCCC2 (racemic) |
| 176 to 180 | Nc1ccc2c(c1Br)COC2=O |
| 102 to 105 | CCOC(=O)CCCCCNS(=O)(=O)c1ccc(Cl)cc1 |
| 147 to 148 | O=C(Nc1ccc(OCCN2CCOCC2)c2ccccc12)c1cccc(N2CCCCC2)c1 |
| 250 to 252 | O=C(O)c1cccc2[nH]nnc12 |
| 150 to 153 | CC1=C(C(=O)OCCCl)C(c2cccc([N+](=O)[O-])c2)C(C(=O)OCC(C)C)=C(C)N1 (stereo not drawn) |
| 122 to 124 | COC(=O)COc1ccc(SCc2ccc(-c3ccc(C(F)(F)F)cc3)cc2)c2c1CCCO2 |
| 220 to 222 | CCCCn1c(=O)c2nc(C(=O)O)cn2c2ccccc21 |
| 143 to 144 | Cc1c(O)ccc(Cl)c1N |
| 158 to 160 | Nc1ccc(O)c(C(=O)CCC(=O)O)c1 |
| > 300 | CCCCc1c2c(nc3c1CCc1cc4nc(C#N)c(N)cc4nc1-3)C(=O)CCC2 |
| 209 | Nc1cc(C(=O)c2cccc(C(=O)c3ccc(Cl)c(N)c3)c2)ccc1Cl |
| 45 to 48 | COC(=O)Cc1ccc(OCCNC(=O)[C@@H]2Cc3ccccc3N2S(=O)(=O)c2ccc(OC(C)(C)C)cc2)cc1 |
| 115 to 118 | CC(=O)Nc1ccc2c(c1)OCC2 |

| melting point [°C] | Compound |
| --- | --- |
| 45 to 46 | Cc1ccc(S(=O)(=O)OCC2CCC=CO2)cc1 (stereo not drawn) |
| 234 to 235 | CN1C(=O)C(C(=O)Nc2nccs2)Sc2ccccc21 (stereo not drawn) |
| 105 to 110 | Cc1cc(NC2CN(C(=O)OCc3ccccc3)CC2O)c2cc(C)c(-c3ccc(Cl)cc3Cl)n2n1 (stereo not drawn) |
| 75.5 | COc1cc(N)ccc1C(=O)NC1(C)CCN(CCCOc2ccc(F)cc2)CC1 |
| 178 to 180 | OC(c1ccccc1)c1cc2ccncc2[nH]1 (stereo not drawn) |
| 134 to 135 | COC(=O)CCC/C=C(/c1ccc(OC)c(C(=O)OC)c1)c1cc(C)c2oc(=O)n(C)c2c1 |
| 142 to 144 | CC(=O)c1ccc(Nc2cccc(Br)c2)c([N+](=O)[O-])c1 |
| 184 to 188 | C[C@]1(COc2ccc(N3CCN(C(=O)OCc4ccc(Cl)cc4)CC3)cc2)Cn2cc([N+](=O)[O-])nc2O1 |
| 187 to 189 | CC(C)(C)CC(C)(C)c1ccc(Oc2cc(N)c(O)cc2[N+](=O)[O-])cc1 |
| 211 | NS(=O)(=O)c1cccc(-c2cc(-c3nc(-c4ccc(C(F)(F)F)c(OCC(F)(F)F)c4)cc(C(F)(F)F)n3)ccn2)c1 |
| 103 to 104 | CN(C)C=C1C(=O)N(C)C(=O)N1c1cccc(C(F)(F)F)c1 |
| 118 to 120 | CCN(C=C(C#N)C#N)c1cc(C(F)(F)F)cc(C(F)(F)F)c1 |
| 198 to 200 | COc1ccc(C2=NN(C3CCN(S(=O)(=O)c4cccc5c(N(C)C)cccc45)CC3)C(=O)[C@@H]3CC=CC[C@H]23)cc1OC |
| 283 to 284 | O=C(O)c1cn(C2CC2)c2c(F)c(N3C[C@H](CF)[C@H](NC(=O)C(F)(F)F)C3)c(F)c(F)c2c1=O (relative stereo) |
| 116 to 118 | Cc1cccc(Cl)c1-n1nc(C(C)C)c(C#N)c1N |
| 121 to 122 | CC(C)(C)c1ccc(/C=N/OCCCOc2ccc(C(=O)O)c(NC(=O)c3ccccc3C(F)(F)F)c2)cc1 |
| 285 to 288 | N#CN=C(Nc1cccnc1)NC1(c2ccccc2)CC=CC1 |
| 148 to 154 | Cn1c(COc2ccc(CC3SC(=O)NC3=O)cc2)nc2ccc(Oc3cccc(NC(=O)Nc4cccc(C#N)c4)c3)cc21 (stereo not drawn) |
| 163 to 165 | CCc1nc2c(N)nc3cccnc3c2n1CCCCCC(=O)N1CCOCC1 |
| > 300 | CCc1nnc2c(O)nc3cc(F)ccc3n12 |
| 88 to 90 | NC(=O)C1(c2ccccc2)CCN(Cc2ccccc2)C1 (stereo not drawn) |
| 45 to 50 | COc1ccc(C)nc1I |
| 151 to 153 | CCCC(=O)c1c[nH]c2c(C(=O)OC)cccc2c1=O |

| melting point [°C] | Compound |
| --- | --- |
| 141 to 142 | N#Cc1cnn2c(-c3cccc(C(F)(F)F)c3)ccnc12 |
| 160 | COc1cccc(OC)c1-c1cc(C(=O)NCC(=O)O)nn1-c1ccc(C(=O)N(C)CCCN(C)C)cc1C(C)C |
| 169 to 170 | CC(C)Cn1c(C(F)(F)F)nc2cc(F)c(-n3c(=O)cc(C(F)(F)F)n(C)c3=O)cc21 |
| 148 to 149 | COC(=NC(=O)Nc1ccc(OC(F)(F)F)cc1)c1ccccc1Cl |
| 112 to 113 | COc1c(F)cccc1OCCN1C(=O)c2ccccc2C1=O |
| 130 to 137 | Cc1noc(NS(=O)(=O)c2ccccc2-c2ccc(-c3ncco3)cc2Cn2c(=O)oc3ccccc32)c1C |
| 94.5 to 95.5 | CSCCN(c1ccc(Cl)cc1[N+](=O)[O-])S(=O)(=O)c1ccc(C)cc1 |
| 208 to 209 | CNS(=O)(=O)c1cc2c(c(C(=O)O)c1)OCCO2 |
| 105 to 106 | COc1cc(COc2nn(Cc3ccc(Oc4ccccc4)cc3)cc2C(N)=O)ccc1OCc1nc(-c2ccco2)oc1C |
| 218 to 219 | C#CC1(OC(C)=O)C(COC(=O)c2ccc(Cl)cc2)OC(n2ccc(=O)[nH]c2=O)C1OC(C)=O (stereo not drawn) |
| 150 to 152 | CSc1ccc(C2NC(C(=O)O)C(C)(C)S2)cc1 (stereo not drawn) |
| 163 to 164 | O=C(OCc1ccccc1)N1C[C@@H]2CN(c3ccc(N4C[C@H](CO)OC4=O)cc3)C[C@@H]2C1 |
| 153 to 155 | Cc1ccc(S(=O)(=O)Nc2nc(-c3cccc(-c4ccccc4)c3)cs2)cc1 |
| 174 to 176 | COc1cc2cnn(CCO)c(=O)c2cc1OC |
| 147 to 149 | CCCN1C(=O)COc2ccc(N3C(=O)C(C)=C(C)C3=O)cc21 |
| 143 to 144 | N#CCCNC(=O)c1cccc(-c2cccc3nn(Cc4ccccc4)cc23)c1 |
| 180 to 182 | Nc1ccc(CS(=O)(=O)Nc2ccccc2)cc1 |
| 237 to 239 | O=C(O)Cc1ccc2c(c1)NC(=O)CO2 |
| 121 to 125 | Cc1cc2c(cc1C)N(C)Cc1cscc1N2 |
| 234 to 238 | CNC(=O)c1ccc(C=CC(=O)Nc2cccc(-c3ccc(C)c(COc4cccc5ccc(C)nc45)c3C)c2)cc1 |
| 121 | FC(F)(F)c1cc(-c2cccs2)[nH]n1 |
| 105 | OCC(CO)(Cc1ccccc1)Cc1ccccc1 |

| Compound | melting point [°C] |
| --- | --- |
| NCC(O)c1ccc(C(F)(F)F)cc1 (stereo not drawn) | 138 to 140 |
| C(=C1CN2CCC1CC2)c1ccc(-c2ccccc2)cc1 | 107 |
| CC1(C)CC(C)(c2ccc(O)cc2)c2cc(O)ccc21 (stereo not drawn) | 202 |
| c1ccc2c(c1)Cc1ccccc1N1CCNCC21 (stereo not drawn) | 128 to 130 |
| CCSC1c2cccc(O)c2C(=O)c2c(O)cccc21 | 117 to 118 |
| CN1CN(c2ccccc2)C2(CCN(CCCn3c(=O)[nH]c4ccccc43)CC2)C1=O | 186 |
| CN1Cc2c(C(=O)NN)ncn2-c2cccc(Cl)c2C1=O | 287 |
